The target in data set [1] is Recombinant human NEP (Homo sapiens, UniProt P08473). The experiment in a line: In vitro neutral endopeptidase (NEP) cleavage assay. Conditions: for NEP Cleavage (t1/2, min): pH 7. An outline of the steps:
(§1)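 Recombinant human NEP (1 ug/mL final) incubated with 100 uM CNP variant in 0.1 M Tris, pH 7, at 37° C for various times, then quenched with EDTA (10 mM final) and heat. Samples reduced and analysed by HPLC and mass spectrometry. Half-life derived from loss of intact variant over time.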

Data set [2] addresses neutral endopeptidase (NEP) (Homo sapiens, UniProt P08473). The description is as above. The following applies: human, pH 7. The essentials:
as §1

The target of data set [3] is T1, NPR-B (Mus musculus, UniProt Q6VVW5).
T1 construct: Murine NIH3T3 cells express endogenously the CNP signaling receptor, NPR-B; endogenous in cells; host or cells: NIH3T3 (murine fibroblasts)
T1 sequence (Q6VVW5 17-1047): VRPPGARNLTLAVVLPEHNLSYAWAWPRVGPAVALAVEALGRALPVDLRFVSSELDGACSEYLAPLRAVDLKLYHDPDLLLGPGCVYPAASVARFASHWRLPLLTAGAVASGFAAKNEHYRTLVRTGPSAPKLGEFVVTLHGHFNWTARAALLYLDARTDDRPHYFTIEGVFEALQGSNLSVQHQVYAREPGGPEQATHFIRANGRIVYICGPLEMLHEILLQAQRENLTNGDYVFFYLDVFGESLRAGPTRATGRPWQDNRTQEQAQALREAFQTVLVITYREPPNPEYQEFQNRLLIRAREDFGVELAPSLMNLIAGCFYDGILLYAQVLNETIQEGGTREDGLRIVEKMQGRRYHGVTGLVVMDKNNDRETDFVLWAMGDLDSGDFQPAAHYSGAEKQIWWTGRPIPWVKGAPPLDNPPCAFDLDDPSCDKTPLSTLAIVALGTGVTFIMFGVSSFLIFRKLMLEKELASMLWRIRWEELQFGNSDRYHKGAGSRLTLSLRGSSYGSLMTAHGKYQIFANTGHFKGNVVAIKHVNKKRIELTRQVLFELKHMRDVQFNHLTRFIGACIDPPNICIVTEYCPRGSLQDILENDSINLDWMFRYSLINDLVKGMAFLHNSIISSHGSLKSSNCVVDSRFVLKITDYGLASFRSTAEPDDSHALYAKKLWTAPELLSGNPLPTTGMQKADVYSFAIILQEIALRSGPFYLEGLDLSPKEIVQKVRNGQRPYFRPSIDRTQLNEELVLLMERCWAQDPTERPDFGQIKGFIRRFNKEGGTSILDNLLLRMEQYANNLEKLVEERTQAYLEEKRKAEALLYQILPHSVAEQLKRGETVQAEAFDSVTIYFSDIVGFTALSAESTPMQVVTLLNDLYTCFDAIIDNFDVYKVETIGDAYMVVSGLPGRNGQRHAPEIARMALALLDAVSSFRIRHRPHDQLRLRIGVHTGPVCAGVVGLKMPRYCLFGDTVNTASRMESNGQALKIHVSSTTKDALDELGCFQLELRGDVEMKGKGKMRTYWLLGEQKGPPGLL
The experiment in a line: Stimulation of cGMP production in NIH3T3 cells. It counts as cell-based, Murine. The following applies: for cGMP response relative to 1 uM CNP22 (%) at 0.01 µM: read-out: cGMP Response rel. to 1 uM CNP22, 10 nM; for cGMP response relative to 1 uM CNP22 (%) at 1 µM: read-out: cGMP Response rel. to 1 uM CNP22, 1 uM.

The mark [4] stands for this setting: in vitro NEP cleavage assay, assay period 160 minutes.
Where [5] appears, read: NIH3T3 cells, 10 nM natriuretic peptide, normalized to cell number and cGMP production with 1 uM wtCNP22.
Setting [6] is: NIH3T3 cells, 1 uM natriuretic peptide, normalized to cell number and cGMP production with 1 uM wtCNP22.

“Also recorded” adds a separate entry of the source. Like-named read-outs stand apart in the source and are kept apart here. Bridge positions count the residues as written; N and C are the ends. Peptide text beside a SMILES is read from it. * marks the point of attachment. CH3O(CH2CH2O)11CH2CH2CO = COCCOCCOCCOCCOCCOCCOCCOCCOCCOCCOCCOCCC(=O)*

neutral endopeptidase (NEP), sequence (P08473 whole entry): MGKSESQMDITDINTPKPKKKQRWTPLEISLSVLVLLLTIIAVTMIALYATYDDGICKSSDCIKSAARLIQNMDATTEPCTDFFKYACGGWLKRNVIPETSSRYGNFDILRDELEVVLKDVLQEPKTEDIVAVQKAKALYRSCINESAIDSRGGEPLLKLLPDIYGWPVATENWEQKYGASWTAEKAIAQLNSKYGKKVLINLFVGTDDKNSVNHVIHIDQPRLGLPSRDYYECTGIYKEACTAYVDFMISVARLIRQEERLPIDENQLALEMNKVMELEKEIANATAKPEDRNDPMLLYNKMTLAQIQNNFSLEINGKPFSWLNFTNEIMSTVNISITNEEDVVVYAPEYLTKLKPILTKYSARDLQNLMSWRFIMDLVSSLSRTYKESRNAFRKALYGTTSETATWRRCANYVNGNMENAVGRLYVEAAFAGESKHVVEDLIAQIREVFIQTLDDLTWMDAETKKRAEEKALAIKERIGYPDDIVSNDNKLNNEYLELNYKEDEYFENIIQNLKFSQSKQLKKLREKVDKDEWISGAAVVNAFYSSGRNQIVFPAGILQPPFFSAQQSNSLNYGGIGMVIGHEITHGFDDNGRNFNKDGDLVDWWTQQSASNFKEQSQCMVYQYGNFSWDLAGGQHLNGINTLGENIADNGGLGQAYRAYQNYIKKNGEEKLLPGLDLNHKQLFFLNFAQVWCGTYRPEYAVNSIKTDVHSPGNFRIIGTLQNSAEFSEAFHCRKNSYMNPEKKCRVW
Recombinant human NEP, sequence (P08473 whole entry): as above

By half-life is commonly meant how long it takes for the measured level to halve. Regarding `CC[C@H](C)[C@@H]1NC(=O)[C@H](CCCNC(=N)N)NC(=O)[C@H](CC(=O)O)NC(=O)[C@H](CC(C)C)NC(=O)[C@H](CCCCN)NC(=O)[C@H](CC(C)C)NC(=O)CNC(=O)[C@H](Cc2ccccc2)NC(=O)[C@@H](NC(=O)CNC(=O)[C@H](CCCNC(=N)N)NC(=O)[C@H](CO)NC(=O)[C@H](CC(C)C)NC(=O)CN)CSSC[C@@H](C(=O)O)NC(=O)CNC(=O)[C@H](CC(C)C)NC(=O)CNC(=O)[C@H](CO)NC(=O)[C@H](CCSC)NC(=O)[C@H](CO)NC(=O)[C@H](CC(N)=O)NC1=O` [BJ] (H-GLSRGCFGLKLDRINSMSGLGC-OH; disulfide 6-22 (inferred); N-terminus and C-terminus assumed), the “resistance to NEP cleavage/degradation (in words)” value in data set [1] (setting [4]) is on record as “greatest resistance to NEP cleavage”. Moreover, in data set [2], the half-life at 100 uM came to 2.5 h. In data set [3] (NIH3T3, […]), the cGMP response relative to 1 uM CNP22 (%) at 0.01 µM turned out to be 4% and the cGMP response relative to 1 uM CNP22 (%) at 1 µM came to 41%.
In the case of `CC[C@H](C)[C@@H]1NC(=O)[C@H](CCCNC(=N)N)NC(=O)[C@H](CC(=O)O)NC(=O)[C@H](CC(C)C)NC(=O)[C@H](CCCCN)NC(=O)[C@H](CC(C)C)NC(=O)CNC(=O)[C@H](Cc2ccccc2)NC(=O)[C@@H](NC(=O)CNC(=O)[C@H](CCCNC(=N)N)NC(=O)[C@H](CO)NC(=O)[C@H](CC(C)C)NC(=O)CN)CSSC[C@@H](C(=O)O)NC(=O)CNC(=O)[C@H](CC(C)C)NC(=O)CNC(=O)[C@H](CO)NC(=O)[C@H](CCSC)NC(=O)[C@H](CO)NC(=O)[C@H](CO)NC1=O` [BK] (H-GLSRGCFGLKLDRISSMSGLGC-OH; disulfide 6-22 (inferred); N-terminus and C-terminus assumed), the “resistance to NEP cleavage/degradation (in words)” value in data set [1] (setting [4]) is “greatest resistance to NEP cleavage”. The half-life at 100 uM in data set [2] was at least 2.67 h. In data set [3] (NIH3T3, […]), the cGMP response relative to 1 uM CNP22 (%) at 0.01 µM turned out to be 13 ± 1% and the cGMP response relative to 1 uM CNP22 (%) at 1 µM worked out at 71 ± 11%.
In the same order, the values of `CC[C@H](C)[C@@H]1NC(=O)[C@H](CCCNC(=N)N)NC(=O)[C@H](CC(=O)O)NC(=O)[C@H](CC(C)C)NC(=O)[C@H](CCCCN)NC(=O)[C@H](CC(C)C)NC(=O)CNC(=O)[C@H](Cc2ccccc2)NC(=O)[C@@H](NC(=O)CNC(=O)[C@H](CCCCN)NC(=O)[C@H](CO)NC(=O)[C@H](CC(C)C)NC(=O)CNC(=O)[C@H](CO)NC(=O)[C@@H]2CCCN2C(=O)[C@@H]2CCCN2C(=O)[C@H](CC(C)C)NC(=O)[C@@H](NC(=O)[C@H](Cc2ccc(O)cc2)NC(=O)[C@@H](NC(=O)[C@H](CCC(N)=O)NC(=O)[C@@H]2CCCN2C(=O)[C@H](CCC(=O)O)NC(=O)[C@H](CCCNC(=N)N)NC(=O)[C@@H]2CCCN2C(=O)[C@H](CCC(N)=O)NC(=O)CN)C(C)C)[C@@H](C)O)CSSC[C@@H](C(=O)O)NC(=O)CNC(=O)[C@H](CC(C)C)NC(=O)CNC(=O)[C@H](CO)NC(=O)[C@H](CCSC)NC(=O)[C@H](CO)NC(=O)CNC1=O` [CF] (H-GQPREPQVYTLPPSGLSKGCFGLKLDRIGSMSGLGC-OH; disulfide 20-36 (inferred); N-terminus and C-terminus assumed) are “most resistant to NEP degradation; also recorded: much more resistant to NEP cleavage than CNP22”, above 2.67 h, 23 ± 9% and 72 ± 19%.
Turning to `CC[C@H](C)[C@@H]1NC(=O)[C@H](CCCNC(=N)N)NC(=O)[C@H](CC(=O)O)NC(=O)[C@H](CC(C)C)NC(=O)[C@H](CCCCN)NC(=O)[C@H](CC(C)C)NC(=O)CNC(=O)[C@H](Cc2ccccc2)NC(=O)[C@@H](NC(=O)CNC(=O)[C@H](CCCNC(=N)N)NC(=O)[C@H](CO)NC(=O)[C@H](CC(C)C)NC(=O)CNC(=O)[C@H](CCC(N)=O)NC(=O)[C@H](CCC(N)=O)NC(=O)[C@H](CC(N)=O)NC(=O)[C@H](C)NC(=O)CNC(=O)[C@@H](NC(=O)[C@H](Cc2ccc(O)cc2)NC(=O)[C@@H](NC(=O)[C@H](CCC(N)=O)NC(=O)[C@@H]2CCCN2C(=O)[C@H](CCC(=O)O)NC(=O)[C@H](CCCNC(=N)N)NC(=O)[C@@H]2CCCN2C(=O)[C@H](CCC(N)=O)NC(=O)CN)C(C)C)[C@@H](C)O)CSSC[C@@H](C(=O)O)NC(=O)CNC(=O)[C@H](CC(C)C)NC(=O)CNC(=O)[C@H](CO)NC(=O)[C@H](CCSC)NC(=O)[C@H](CO)NC(=O)CNC1=O` [CK] (H-GQPREPQVYTGANQQGLSRGCFGLKLDRIGSMSGLGC-OH; disulfide 21-37 (inferred); N-terminus and C-terminus assumed), the “resistance to NEP cleavage/degradation (in words)” value in data set [1] was “most resistant to NEP degradation”. For the same compound, the half-life at 100 uM in data set [2] is at least 2.67 h. The cGMP response relative to 1 uM CNP22 (%) at 0.01 µM in data set [3] (setting [5]) is 2%. Further, the cGMP response relative to 1 uM CNP22 (%) at 1 µM in data set [3] (setting [6]) was 32%.
In the case of `CC[C@H](C)[C@@H]1NC(=O)[C@H](CCCNC(=N)N)NC(=O)[C@H](CC(=O)O)NC(=O)[C@H](CC(C)C)NC(=O)[C@H](CCCCN)NC(=O)[C@H](CC(C)C)NC(=O)CNC(=O)[C@H](Cc2ccccc2)NC(=O)[C@@H](NC(=O)CNC(=O)[C@H](CCCNC(=N)N)NC(=O)[C@H](CO)NC(=O)[C@H](CC(C)C)NC(=O)CNC(=O)[C@H](CCC(N)=O)NC(=O)[C@H](CCC(N)=O)NC(=O)[C@H](CC(N)=O)NC(=O)[C@H](C)NC(=O)CNC(=O)[C@@H](NC(=O)[C@H](CO)NC(=O)[C@@H](NC(=O)[C@H](CO)NC(=O)[C@@H](NC(=O)[C@H](CCC(N)=O)NC(=O)[C@@H]2CCCN2C(=O)[C@@H](NC(=O)CN)C(C)C)C(C)C)[C@@H](C)O)[C@@H](C)O)CSSC[C@@H](C(=O)O)NC(=O)CNC(=O)[C@H](CC(C)C)NC(=O)CNC(=O)[C@H](CO)NC(=O)[C@H](CCSC)NC(=O)[C@H](CO)NC(=O)CNC1=O` [CL] (H-GVPQVSTSTGANQQGLSRGCFGLKLDRIGSMSGLGC-OH; disulfide 20-36 (inferred); N-terminus and C-terminus assumed), the “resistance to NEP cleavage/degradation (in words)” value in data set [1] was “most resistant to NEP degradation”. In data set [2], this compound came in with a half-life at 100 uM above 2.67 h. In addition, the cGMP response relative to 1 uM CNP22 (%) at 0.01 µM in data set [3] (setting [5]) was determined as 3%. In data set [3] (setting [6]), the cGMP response relative to 1 uM CNP22 (%) at 1 µM amounted to 35%.
Take `CC[C@H](C)[C@@H]1NC(=O)[C@H](CCCNC(=N)N)NC(=O)[C@H](CC(=O)O)NC(=O)[C@H](CC(C)C)NC(=O)[C@H](CCCCN)NC(=O)[C@H](CC(C)C)NC(=O)CNC(=O)[C@H](Cc2ccccc2)NC(=O)[C@@H](NC(=O)CNC(=O)[C@H](CCCNC(=N)N)NC(=O)[C@H](CO)NC(=O)[C@H](CC(C)C)NC(=O)CNC(=O)[C@H](CCCNC(=N)N)NC(=O)[C@@H]2CCCN2C(=O)[C@H](CC(N)=O)NC(=O)[C@H](C)NC(=O)CNC(=O)CCOCCOCCOCCOCCOCCOCCOCCOCCOCCOCCOCCOC)CSSC[C@@H](C(=O)O)NC(=O)CNC(=O)[C@H](CC(C)C)NC(=O)CNC(=O)[C@H](CO)NC(=O)[C@H](CCSC)NC(=O)[C@H](CO)NC(=O)CNC1=O` [PEO12-GANPR-CNP22, K4R] ({CH3O(CH2CH2O)11CH2CH2CO}-GANPRGLSRGCFGLKLDRIGSMSGLGC-OH; disulfide 11-27; C-terminus assumed): the “resistance to NEP cleavage/degradation (in words)” value in data set [1] was “same half-life as wtCNP22”. Moreover, in data set [2] (recombinant human neutral endopeptidase (NEP)), the half-life at 100 uM was found to be 1.33 h.
With “PEG5K-CNP22: CNP22 conjugated at the N-terminus to polydispersed PEG5K”, in data set [1], the “resistance to NEP cleavage/degradation (in words)” value is “resistant to NEP degradation over the assay period of 160 minutes” and the “NEP Cleavage (t1/2, min)” value was >>160 min. For the same compound, the “cGMP Response rel. to 1 uM CNP22, 10 nM” value in data set [3] (setting [5]) was found to be 8 ± 1. The “cGMP Response rel. to 1 uM CNP22, 1 uM” value in data set [3] (setting [6]) is 20 ± 7.
Consider “PEG20K-CNP22: CNP22 conjugated at the N-terminus to polydispersed PEG20K”, for which, in data set [1], the “NEP Cleavage (t1/2, min)” value is >>160 min. The “cGMP Response rel. to 1 uM CNP22, 10 nM” value in data set [3] (setting [5]) is recorded as 0. In addition, the “cGMP Response rel. to 1 uM CNP22, 1 uM” value in data set [3] (setting [6]) is 15.

(Values after patent US8377884B2, “Variants of C-type natriuretic peptides” (Biomarin Pharmaceutical Inc., priority 2007, dated 2013).)
